From US8735384B2, “Amino heteroaryl compounds as beta-secretase modulators and methods of use” (Amgen Inc., priority 2010, dated 2014) come the findings set out here.

In assay [1] the test system is Aβ40 in conditioned medium of cells stably expressing Amyloid Precursor Protein (APP). The experiment in a line: In vitro BACE cell-based assay (HEK cell assay), Aβ40 sandwich ELISA. Particulars: Homo sapiens, HEK293, 24 h, inhibition of Aβ40, 24 h incubation, read-out: HEK cell assay (IC50 class). In outline:
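APP-stably expressing cells (40K/well) grown 24 h, then treated 24 h with 10-point doses from 100 μM or 10 μM top (0.1% DMSO). Secreted Aβ40 quantified by sandwich ELISA (pAb40 capture, biotinylated 6E10 detection, europium time-resolved fluorescence); IC50 from percent inhibition versus concentration.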
Background: An ELISA detects its analyte on a solid surface through an enzyme-linked reagent.

A further assay concerns the target BACE1 (Homo sapiens, UniProt P56817). Kind of assay: In vitro enzymatic BACE FRET assay. The format is biochemical. Particulars: beta secretase enzyme 0.2 nM, FRET substrate 50 nM, pH 4.2. In outline:
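Beta-secretase (0.2 nM) was pre-incubated 1 h with serially diluted inhibitor in 0.05 M acetate pH 4.2, 10% DMSO, 100 uM genapol. Then 50 nM quenched peptide FRET substrate was added for 1 h. The reaction was stopped with Tris to neutral pH and fluorescence read ([…]).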

[2] abbreviates: read-out: BACE1 FRET assay (IC50 class).
Where [3] appears, read: read-out: BACE1 FRET assay (IC50, numeric).

In general, pIC50 refers to the IC50 on a negative log10 scale, so that one unit is a factor of ten.

pIC50: −log10 of the molar value. Where two headings read alike, the source gives them in different places. A value given as a limit tells only on which side of the number the result lay.

BACE1, sequence (P56817 46-501, species assumed): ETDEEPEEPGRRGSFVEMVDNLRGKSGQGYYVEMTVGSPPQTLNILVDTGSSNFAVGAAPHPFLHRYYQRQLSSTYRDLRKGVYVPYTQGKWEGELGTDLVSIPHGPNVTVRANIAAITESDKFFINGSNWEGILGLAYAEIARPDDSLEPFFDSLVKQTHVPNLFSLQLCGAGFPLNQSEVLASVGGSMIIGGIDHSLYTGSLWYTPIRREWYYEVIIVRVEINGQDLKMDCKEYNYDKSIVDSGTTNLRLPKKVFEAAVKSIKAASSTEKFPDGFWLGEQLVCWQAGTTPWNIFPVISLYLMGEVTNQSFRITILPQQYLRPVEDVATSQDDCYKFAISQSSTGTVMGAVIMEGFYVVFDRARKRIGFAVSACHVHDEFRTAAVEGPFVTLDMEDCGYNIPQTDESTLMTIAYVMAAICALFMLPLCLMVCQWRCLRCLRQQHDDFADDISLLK

For `Cc1cccc(C(=O)N2CCC(F)(F)CC2)c1-c1ccc2nc(N)c(N3CCOCC3)cc2c1` [Example 109, (2-(2-amino-3-morpholinoquinolin-6-yl)-3-methylphenyl)(4,4-difluoropiperidin-1-yl)methanone], the pIC50 in assay [1] was 6.00 to 6.30; on BACE1 (setting [2]), greater than 7.00.
`CCCN(C)C(=O)c1cccc(C)c1-c1ccc2nc(N)c(N3CCOCC3)cc2c1` [Example 110, 2-(2-amino-3-morpholinoquinolin-6-yl)-N,3-dimethyl-N-propylbenzamide]: the results for the pIC50 (in assay [1]; at BACE1 (setting [2])) were 5.30 to 6.00 and 6.30 to 7.00, respectively.
As to `CCCN(CC1CC1)C(=O)c1cccc(C)c1-c1ccc2nc(N)c(N3CCOCC3)cc2c1` [Example 111, 2-(2-amino-3-morpholinoquinolin-6-yl)-N-(cyclopropylmethyl)-3-methyl-N-propylbenzamide], the pIC50 in assay [1] is less than 5.30; on BACE1 (setting [3]), 5.81.
As to `Cc1cccc(C(=O)N(C)C2CCCCC2)c1-c1ccc2nc(N)c(N3CCOCC3)cc2c1` [Example 112, 2-(2-amino-3-morpholinoquinolin-6-yl)-N-cyclohexyl-N,3-dimethylbenzamide], the values for the pIC50 (in assay [1]; at BACE1 (setting [2])) were 5.30 to 6.00 and greater than 7.00, respectively.
The corresponding values for `CCN(C(=O)c1cccc(C)c1-c1ccc2nc(N)c(N3CCOCC3)cc2c1)C1CCCCC1` [Example 113, 2-(2-amino-3-morpholinoquinolin-6-yl)-N-cyclohexyl-N-ethyl-3-methylbenzamide] are 5.30 to 6.00 and 6.30 to 7.00.
On to `CSC1=NCCN1C(=O)c1cccc(C)c1-c1ccc2nc(N)c(N3CCOCC3)cc2c1` [Example 114, (2-(2-amino-3-morpholinoquinolin-6-yl)-3-methylphenyl)(2-(methylthio)-4,5-dihydro-1H-imidazol-1-yl)methanone], for which the pIC50 in assay [1] was less than 5.30; on BACE1 (setting [3]), 5.94.
For the compound `Cc1cccc(C(=O)N2CCCC(C)C2)c1-c1ccc2nc(N)c(N3CCOCC3)cc2c1` (centres unmarked) [Example 115, (2-(2-amino-3-morpholinoquinolin-6-yl)-3-methylphenyl)(3-methylpiperidin-1-yl)methanone], the pIC50 in assay [1] is 6.00 to 6.30; on BACE1 (setting [2]) it was greater than 7.00.
In the case of `C=CCN(CC=C)C(=O)c1cccc(C)c1-c1ccc2nc(N)c(N3CCOCC3)cc2c1` [Example 116, N,N-diallyl-2-(2-amino-3-morpholinoquinolin-6-yl)-3-methylbenzamide], the pIC50 was 5.30 to 6.00 in assay [1] and 6.30 to 7.00 on BACE1 (setting [2]).
The corresponding values for `CCCCN(C)C(=O)c1cccc(C)c1-c1ccc2nc(N)c(N3CCOCC3)cc2c1` [Example 117, 2-(2-amino-3-morpholinoquinolin-6-yl)-N-butyl-N,3-dimethylbenzamide] are 5.30 to 6.00 and greater than 7.00.
`CCCCN(CC)C(=O)c1cccc(C)c1-c1ccc2nc(N)c(N3CCOCC3)cc2c1` [Example 118, 2-(2-amino-3-morpholinoquinolin-6-yl)-N-butyl-N-ethyl-3-methylbenzamide]: the results for the pIC50 (in assay [1]; at BACE1 (setting [2])) were 5.30 to 6.00 and 6.00 to 6.30, respectively.
Turning to `Cc1cccc(C(=O)N(C)CCC(C)C)c1-c1ccc2nc(N)c(N3CCOCC3)cc2c1` [Example 119, 2-(2-amino-3-morpholinoquinolin-6-yl)-N-isopentyl-N,3-dimethylbenzamide], the negative logarithm of the IC50 (pIC50) in assay [1] was 5.30 to 6.00; at BACE1 (setting [2]), 6.30 to 7.00.
The corresponding values for `CCCC(C)N(C)C(=O)c1cccc(C)c1-c1ccc2nc(N)c(N3CCOCC3)cc2c1` (centres unmarked) [Example 120, 2-(2-amino-3-morpholinoquinolin-6-yl)-N,3-dimethyl-N-(pentan-2-yl)benzamide] are 5.30 to 6.00 and greater than 7.00.
The corresponding values for `CCN(C)C(=O)c1cccc(C)c1-c1ccc2nc(N)c(N3CCOCC3)cc2c1` [Example 121, 2-(2-amino-3-morpholinoquinolin-6-yl)-N-ethyl-N,3-dimethylbenzamide] are 5.30 to 6.00 and 6.30 to 7.00.
The corresponding values for `Cc1cccc(C(=O)N(C)C2CCC(C)CC2)c1-c1ccc2nc(N)c(N3CCOCC3)cc2c1` (centres unmarked) [Example 122, 2-(2-amino-3-morpholinoquinolin-6-yl)-N,3-dimethyl-N-(4-methylcyclohexyl)benzamide] are 6.00 to 6.30 and greater than 7.00.
As to `Cc1cccc(C(=O)N(C)C(C)(C)C)c1-c1ccc2nc(N)c(N3CCOCC3)cc2c1` [Example 123, 2-(2-amino-3-morpholinoquinolin-6-yl)-N-tert-butyl-N,3-dimethylbenzamide], the pIC50 in assay [1] was 6.00 to 6.30; at BACE1 (setting [2]) it was greater than 7.00.
`Cc1cccc(C(=O)N2C(C)CCCC2C)c1-c1ccc2nc(N)c(N3CCOCC3)cc2c1` (centres unmarked) [Example 124, (2-(2-amino-3-morpholinoquinolin-6-yl)-3-methylphenyl)(2,6-dimethylpiperidin-1-yl)methanone]: the pIC50 in assay [1] was 5.30 to 6.00; at BACE1 (setting [2]) it was greater than 7.00.
Turning to `Cc1cccc(C(=O)N2C(C)C=CC2C)c1-c1ccc2nc(N)c(N3CCOCC3)cc2c1` (centres unmarked) [Example 125, (2-(2-amino-3-morpholinoquinolin-6-yl)-3-methylphenyl)(2,5-dimethyl-2,5-dihydro-1H-pyrrol-1-yl)methanone], the negative logarithm of the IC50 (pIC50) in assay [1] is 6.00 to 6.30; at BACE1 (setting [2]) it was greater than 7.00.
In the case of `Cc1cccc(C(=O)N(C)c2ccccc2)c1-c1ccc2nc(N)c(N3CCOCC3)cc2c1` [Example 126, 2-(2-amino-3-morpholinoquinolin-6-yl)-N,3-dimethyl-N-phenylbenzamide], the negative-log IC50 (pIC50) in assay [1] is 5.30 to 6.00; on BACE1 (setting [2]), 6.30 to 7.00.
The corresponding values for `Cc1cccc(C(=O)Nc2ccccc2)c1-c1ccc2nc(N)c(N3CCOCC3)cc2c1` [Example 127, 2-(2-amino-3-morpholinoquinolin-6-yl)-3-methyl-N-phenylbenzamide] are less than 5.30 and 5.30 to 6.00.
As to `Nc1nc2ccc(-c3ccc(F)cc3C(=O)N3CCC3)cc2cc1N1CCOCC1` [Example 128, (2-(2-amino-3-morpholinoquinolin-6-yl)-5-fluorophenyl)(azetidin-1-yl)methanone], the pIC50 in assay [1] was less than 5.30; on BACE1 (setting [2]), 5.30 to 6.00.
The corresponding values for `CCOC(=O)c1cc(F)cc(C)c1-c1ccc2nc(N)c(N3CCOCC3)cc2c1` [Example 129, ethyl 2-(2-amino-3-morpholinoquinolin-6-yl)-5-fluoro-3-methylbenzoate] are 5.30 to 6.00 and 6.30 to 7.00.
The corresponding values for `Cc1cc(F)cc(C(=O)N2CC[C@@H](F)C2)c1-c1ccc2nc(N)c(N3CCOCC3)cc2c1` [Example 130, (R)-(2-(2-amino-3-morpholinoquinolin-6-yl)-5-fluoro-3-methylphenyl)(3-fluoropyrrolidin-1-yl)methanone] are 6.30 to 7.00 and greater than 7.00.
As to `Cc1ccc(N(C)C(=O)c2cccc(C)c2-c2ccc3nc(N)c(N4CCOCC4)cc3c2)cc1` [Example 131, 2-(2-amino-3-morpholinoquinolin-6-yl)-N,3-dimethyl-N-p-tolylbenzamide], the negative logarithm of the IC50 (pIC50) in assay [1] was 5.30 to 6.00; on BACE1 (setting [2]), greater than 7.00.
The corresponding values for `COc1ccc(N(C)C(=O)c2cccc(C)c2-c2ccc3nc(N)c(N4CCOCC4)cc3c2)cc1` [Example 132, 2-(2-amino-3-morpholinoquinolin-6-yl)-N-(4-methoxyphenyl)-N,3-dimethylbenzamide] are 6.00 to 6.30 and greater than 7.00.
On to `Cc1cccc(C(=O)N(C)[C@H](C)c2ccccc2)c1-c1ccc2nc(N)c(N3CCOCC3)cc2c1` [Example 133, (R)-2-(2-amino-3-morpholinoquinolin-6-yl)-N,3-dimethyl-N-(1-phenylethyl)benzamide], for which the figures for the negative-log IC50 (pIC50) (in assay [1]; at BACE1 (setting [2])) were 5.30 to 6.00 and greater than 7.00, respectively.
Consider `Cc1cccc(C(=O)N(C)C)c1-c1ccc2nc(N)c(N3CCOCC3)cc2c1` [Example 134, 2-(2-amino-3-morpholinoquinolin-6-yl)-N,N,3-trimethylbenzamide], for which the pIC50 in assay [1] was 5.30 to 6.00; on BACE1 (setting [2]), 6.30 to 7.00.
The corresponding values for `Cc1cccc(C(=O)N(C)Cc2cccc3ccccc23)c1-c1ccc2nc(N)c(N3CCOCC3)cc2c1` [Example 135, 2-(2-amino-3-morpholinoquinolin-6-yl)-N,3-dimethyl-N-(naphthalen-1-ylmethyl)benzamide] are 5.30 to 6.00 and 6.30 to 7.00.
The corresponding values for `Cc1cccc(C(=O)N(C)Cc2ccccc2)c1-c1ccc2nc(N)c(N3CCOCC3)cc2c1` [Example 136, 2-(2-amino-3-morpholinoquinolin-6-yl)-N-benzyl-N,3-dimethylbenzamide] are 5.30 to 6.00 and 6.30 to 7.00.
The corresponding values for `Cc1cccc(C(=O)N(C)CCc2ccccc2)c1-c1ccc2nc(N)c(N3CCOCC3)cc2c1` [Example 137, 2-(2-amino-3-morpholinoquinolin-6-yl)-N,3-dimethyl-N-phenethylbenzamide] are 5.30 to 6.00 and 6.30 to 7.00.
With `Cc1cccc(C(=O)N(C)c2ccc(F)cc2)c1-c1ccc2nc(N)c(N3CCOCC3)cc2c1` [Example 138, 2-(2-amino-3-morpholinoquinolin-6-yl)-N-(4-fluorophenyl)-N,3-dimethylbenzamide], the negative-log IC50 (pIC50) was 5.30 to 6.00 in assay [1] and 6.30 to 7.00 at BACE1 (setting [2]).
The corresponding values for `COc1ccccc1N(C)C(=O)c1cccc(C)c1-c1ccc2nc(N)c(N3CCOCC3)cc2c1` [Example 139, 2-(2-amino-3-morpholinoquinolin-6-yl)-N-(2-methoxyphenyl)-N,3-dimethylbenzamide] are 5.30 to 6.00 and greater than 7.00.
